Test results reported in patent US20210324041A1, “COMBINATION THERAPIES” (Shattuck Labs, Inc., priority 2018, published 2021).

Legend:
[1] = system: CT26 (murine colon carcinoma) tumor cells; experiment: In vivo anti-tumor activity of combinations of a STING agonist and chimeric proteins (CT26 tumor model); design: species or system BALB/C mice; conditions: for effectiveness of combination by order of administration: chimeric protein provided after DMXAA relative to DMXAA following the chimeric protein
Experimental: The in vivo ability of specific combinations of a stimulator of interferon genes (STING) agonist and chimeric proteins to target and reduce tumor volume was determined.
BALB/C mice were inoculated with 500,000 CT26 (murine colon carcinoma) tumor cells. Eight days after inoculation, there was no significant difference between starting tumor volumes among the mice, i.e., volumes were approximately 100 mm^3. Specific combinations were included: DMXAA; anti-PD-1 (RMP1-14); anti-OX40 (OX86); PD1-Fc-OX40L; CSF1R-Fc-CD40L (FIG. 8A); DMXAA then anti-PD1; DMXAA then anti-OX40; DMXAA then PD1-Fc-OX40L; DMXAA then CSF1R-Fc-CD40L (FIG. 8B); PD1-Fc-OX40L then […]; and CSF1R-Fc-CD40L then DMXAA (FIG. 8C). Tumor sizes were assayed every other day until the 27th day after inoculation. Mice that rejected the tumor were re-challenged with a secondary tumor (300,000 CT26 tumor cells) on the opposing flank, and primary/secondary tumors continued to be measured.

[2] = system: CT26 (murine colon carcinoma) tumor cells; experiment: In vivo anti-tumor activity of combinations of antibodies directed to immune checkpoint molecules and chimeric proteins (CT26 tumor model); design: species or system BALB/C mice; conditions: for tumor volume: relative to vehicle, until the 35th day, antibodies three doses of 100 μg, chimeric protein three doses of 300 μg
Experimental: The in vivo ability of specific combinations of antibodies directed to immune checkpoint molecules and chimeric proteins to target and reduce tumor volume was determined.
BALB/C mice were inoculated with 500,000 CT26 (murine colon carcinoma) tumor cells. Eight days after inoculation, there was no significant difference between starting tumor volumes among the mice, i.e., volumes were approximately 100 mm^3. Specific combinations were included: anti-CTLA-4 (9D9); anti-PD-1 (RMP1-14); anti-OX40 (OX86); PD1-Fc-OX40L; CSF1R-Fc-CD40L (FIG. 3B); anti-CTLA-4 then anti-PD1; anti-CTLA-4 then anti-OX40; anti-CTLA-4 then PD1-Fc-OX40L; anti-CTLA-4 then CSF1R-Fc-CD40L (FIG. 3C); PD1-Fc-OX40L then anti-CTLA-4; and CSF1R-Fc-CD40L then anti-CTLA-4 (FIG. 3D); anti-CTLA-4 then CSF1R-Fc-CD40L; CSF1R-Fc-CD40L then anti-CTLA-4; and CSF1R-Fc-CD40L with anti-CTLA-4 (FIG. 3E and FIG. 3F); and anti-PD-1 then CSF1R-Fc-CD40L; CSF1R-Fc-CD40L then anti-PD-1; and CSF1R-Fc-CD40L with anti-PD-1 (FIG. 4A and FIG. 4B).
In the experiments shown in FIG. 3A to FIG. 3D, tumor sizes were assayed every other day until the 27th day after inoculation. Mice that rejected the tumor were re-challenged with a secondary tumor (300,000 CT26 tumor cells) on the opposing flank, and primary/secondary tumors continued to be measured. In the experiments shown in FIG. 3E to FIG. 4B, tumor sizes were assayed every other day until the 35th day after inoculation. Mice that rejected the tumor were re-challenged with a secondary tumor (300,000 CT26 tumor cells) on the opposing flank, and primary/secondary tumors continued to be measured. Antibodies were given as three doses of 100 μg, the chimeric protein was given as three doses of 300 μg, with antibodies administered before, after, and simultaneously with the chimeric protein (days 7, 9, & 11; or days 12, 14, & 16).

[3] = system: various cytokines (e.g., CCL4, IL-18, IL-23, and IL-10); experiment: In vivo serum cytokine expression in mice (Luminex); conditions: murine CSF1R-Fc-CD40L, relative to vehicle, FIG. 10
Experimental: (§1) The ability of the CSF1R-Fc-CD40L chimeric protein to induce in vivo cytokine expression in mice and in a non-human primate (Cynomolgus Macaque) was determined.
(§2) Mice were administered a vehicle or the murine CSF1R-Fc-CD40L chimeric protein and Cynomolgus Macaques were administered a vehicle or the human CSF1R-Fc-CD40L chimeric protein and the relative amount of various cytokines (e.g., CCL4, IL-18, IL-23, and IL-10) were detected and quantified.

[4] = system: various cytokines (e.g., CCL4, IL-18, IL-23, and IL-10); experiment: In vivo serum cytokine expression in Cynomolgus Macaques (Luminex); design: species or system Cynomolgus Macaque; conditions: monkeys; human CSF1R-Fc-CD40L; relative to vehicle; FIG. 10
Experimental: as §1, §2

In vivo toxicity in mice = experiment: In vivo toxicity in mice
Experimental: as §2

[5] = In vivo toxicity in monkeys
Experimental: as §2

Molecule	anti-tumor activity as a monotherapy ([1]; FIG. 8A)	anti-tumor effects compared among treatment groups ([2]; FIG. 3E (anti-CTLA-4 series))	anti-tumor effects compared among treatment groups ([2]; FIG. 4A (anti-PD-1 series))	survivors ([2]; by 30 days after inoculation)	improvement in tumor volume reduction by order of administration ([2]; chimeric protein administered after the anti-CTLA-4 antibody, FIG. 3C, 3D)	tumor volume ([2]; FIG. 3E (anti-CTLA-4 series))	tumor volume ([2]; FIG. 4A (anti-PD-1 series))	effectiveness of combination by order of administration [1]	serum cytokine levels [3]	serum cytokine levels [4]	in vivo toxicity (In vivo toxicity in mice)	in vivo toxicity [5]
Cc1ccc2c(=O)c3cccc(CC(=O)O)c3oc2c1C [DMXAA, 5,6-dimethylxanthenone-4-acetic acid, reference compound]	effective anti-tumor agent	–	–	–	–	–	–	–	–	–	–	–
CSF1R-Fc-CD40L: chimeric protein: extracellular region of CSF1R, linker comprising a hinge-CH2-CH3 Fc region, extracellular region of CD40L; murine and human versions used	–	Roughly comparable amounts of anti-tumor effects	Roughly comparable amounts of anti-tumor effects	no survivors	most significant improvement	effective in reducing tumor volume	effective in reducing tumor volume	more effective	greatly enhanced	greatly enhanced	no in vivo toxicity was observed	no in vivo toxicity was observed
PD1-Fc-OX40L: chimeric protein: extracellular domain of PD-1, linker comprising a hinge-CH2-CH3 Fc domain, extracellular domain of OX40L (protein) LDSPDRPWNPPTFSPALLVVTEGDNATFTCSFSNTSESFVLNWYRMSPSNQTDKLAAFPEDRSQPGQDCRFRVTQLPNGRDFHMSVVRARRNDSGTYLCGAISLAPKAQIKESLRAELRVTERRAEVPTAHPSPSPRPAGQFQSKYGPPCPPCPAPEFLGGPSVFLFPPKPKDQLMISRTPEVTCVVVDVSQEDPEVQFNWYVDGVEVHNAKTKPREEQFNSTYRVVSVLTVLHQDWLSGKEYKCKVSSKGLPSSIEKTISNATGQPREPQVYTLPPSQEEMTKNQVSLTCLVKGFYPSDIAVEWESNGQPENNYKTTPPVLDSDGSFFLYSRLTVDKSRWQEGNVFSCSVLHEALHNHYTQKSLSLSLGKIEGRMDQVSHRYPRIQSIKVQFTEYKKEKGFILTSQKEDEIMKVQNNSVIINCDGFYLISLKGYFSQEVNISLHYQKDEEPLFQLKKVRSVNSLMVASLTYKDKVYLNVTTDNTSLDDFHVNGGELILIHQNPGEFCVL	–	–	–	–	–	–	–	more effective	–	–	–	–
